Non-standard residues stand in square brackets, D forms with d. Residues, ends and D or L forms follow the SMILES beside them. NMeV = CN[C@H](C(=O)O)C(C)C; βAla = NCCC(=O)O
Assays:
[1] = Tolerability during treatment (side effects, body weight, behaviour); type: in vivo, Syrian Golden hamster; settings: 30 mg kg^−1 i.p. twice a day
Method: Experiments were performed with male Syrian Golden Hamsters (6–8 weeks old, 50–60 g body weight (bw)) in accordance with institutional guidelines after approval of the animal committee of the Bavarian state. The animals were housed one per cage and had free access to tap water and standard laboratory food throughout the experiments. Animals were inspected at least two times a day by specialised animal colony staff to assure a normal clinical condition (including appearance, posture, behaviour and physiological responses). Particular attention was given to body weight and any signs of discomfort, ulceration or inflammation. All surgical procedures were performed under pentobarbital anaesthesia (50 mg kg^−1 b.w., i.p.; Nembutal, Sanofia-Leva, Hannover, Germany). The experiments met all the standards required by the UKCCCR guidelines for the welfare of animals in experimental neoplasia (United Kingdom Co-ordinating Committee on Cancer Research ([UKCCCR), 1998]).
(§1) The cyclic integrin αv antagonist EMD121974 (cyclic Arg-Gly-Asp-D-Phe(N-methyl)Val) ([Dechantsreiter et al, 1999]) and the control peptide EMD135981 (cyclic Arg-β-Ala-Asp-D-Phe(N-methyl)Val) were synthesised and characterised at Merck KgAa (Darmstadt, Germany). In pilot studies pharmacokinetics of the peptides were compared after intravenous and intraperitoneal injection in hamsters. […]

[2] = test system: subcutaneous A-Mel-3; experiment: Growth and lymph node metastasis of subcutaneous A-Mel-3 tumours; type: in vivo, Syrian Golden hamster; settings: for Subcutaneous tumour volume / growth pattern: calliper measurement every other day from day 5, 30 mg kg^−1 i.p. every 12 h
Method: Male Syrian Golden Hamsters (weight, age and housing as described above) were anaesthetised with pentobarbital and the dorsal skin was shaven and chemically depilated (Pilcamed, Schwarzkopf, Germany). Cells (4 to 6×10^6) of the A-Mel-3 were suspended in a 10 μl volume and injected s.c. over the lumbosacral region of the dorsal skin. This is considered to cause the least distress upon the animal because the dorsal skin is extremely expansible. Starting on day 5 after tumour cell implantation, the longer (l) and shorter (w) perpendicular axes and the height (h) of each tumour nodule were measured with callipers every other day. Metastases of the animals were determined by palpation of axillar and inguinal lymph nodes. The day when metastases were first palpable the animal was defined as metastasised. To minimise the pain and distress of the animals no biopsies were taken from the lymph nodes during the observation time. This was due to the known fact that the axillar or inguinal lymph nodes were the most frequent sites of metastasis formation ([Fortner et al, 1961]; [Weiss et al, 1990]). After the end of the experiments when animals were euthanised, biopsies were taken to confirm histologically the invasion of the lymph nodes. Tumour volume was calculated according to the formula Vt=0.837×l×w×h ([Weiss et al, 1990]).
(§2) The cyclic integrin αv antagonist EMD121974 (cyclic Arg-Gly-Asp-D-Phe(N-methyl)Val) ([Dechantsreiter et al, 1999]) and the control peptide EMD135981 (cyclic Arg-β-Ala-Asp-D-Phe(N-methyl)Val) were synthesised and characterised at Merck KgAa (Darmstadt, Germany). In pilot studies pharmacokinetics of the peptides were compared after intravenous and intraperitoneal injection in hamsters. […] Therefore, we chose the following set-up for administration: Peptides were dissolved in PBS (10 mg ml^−1). One day after implantation of tumour cells, animals were randomly assigned to two groups (n=6) and RGD-peptide EMD121974 or control-peptide EMD135981 were given i.p. every 12 h (30 mg kg^−1 b.w.) until the end of the experiments.
Results are presented as mean±s.e.m. Data were evaluated using Wilcoxon–Mann–Whitney U and Kruskal–Wallis test, respectively (SigmaStat; Jandel Scientific, San Rafael, CA, USA). Metastasis analysis was performed according to the Kaplan–Meier method ([Kaplan and Meier, 1958]) and the differences were compared for statistical significance using the Cox-F test ([Lee, 1975], [1980]) with the statistical software program Statistica (StatSoft, Inc, 1997, Tulsa, OK, USA). P values smaller than 5% were considered to be significant.

[3] = Pilot pharmacokinetics after intravenous and intraperitoneal injection; type: in vivo, hamster; settings: hamsters, pilot study
Method: as §2

[4] = test system: amelanotic hamster melanoma A-Mel-3; experiment: Tumour growth (tumour area) in the dorsal skinfold chamber by video macroscopy; type: in vivo, Syrian Golden hamster; settings: 30 mg kg^−1 i.p. every 12 h; for Tumour area: n=6, mean±s.e.m.
Method: (§3) For quantification of tumour angiogenesis, a dorsal skinfold chamber preparation consisting of two symmetrical titanium frames was surgically implanted into the dorsal skin as described earlier in detail ([Asaishi et al, 1981]; [Endrich et al, 1982]). This is considered to cause the least distress upon the animal because the dorsal skin is extremely expansible. Following implantation of the transparent chamber and a recovery period of 48 h from anaesthesia and microsurgery, preparations fulfilling the criteria of an intact microcirculation were implanted with 2×10^5 cells of the amelanotic melanoma of the hamster A-Mel-3 ([Fortner et al, 1961]). Fine polyethylene catheters (PE10, inner diameter 0.28 mm) were permanently inserted into the right jugular vein 48 h before first measurement to allow injection of fluorescent agents for intravital fluorescence microscopy.
(§4) Quantification of tumour angiogenesis using intravital fluorescence microscopy have been described in detail elsewhere ([Asaishi et al, 1981]; [Dellian et al, 1995], [1996]). In brief, the awake animal was trained to crawl into a transparent plastic tube and was placed on a custom-made stage under a modified Leitz microscope (Orthoplan; Leitz, Munich, Germany). FITC-labelled dextran (Sigma, Deisenhofen, Germany; MW 500000; 0.05–0.1 ml of a 5% solution in 0.9% NaCl) as a plasma marker and rhodamine 6G (Molecular Probes, Eugene, OR, USA; 0.04 ml of a 0.05% solution in 0.9% NaCl) to label white blood cells in vivo, were injected i.v. to visualise microcirculation and leucocyte–endothelium interaction, respectively. […] Selective observation of FITC-labelled plasma was possible using epi-illumination with a 100 W mercury lamp attached to a Ploemopack illuminator with a Leitz I2/3 filter block (excitation 450–490 nm, emission ⩽515 nm) and rhodamine 6G-stained leucocytes were visualised using a Leitz N2 filter block (excitation 530–560 nm, emission ⩽580 nm). Intravital microscopy was performed 3, 5, 9 and 13 days after implantation of the tumour cells. At least 3–5 sites of interest per animal were randomly selected in centre and periphery of the tumour. Images were acquired by a SIT video camera (C2400-08; Hamamatsu Herrsching, Germany) and recorded on S-VHS video tape (Sony) for subsequent analysis. Parallel to microvascular observations the area covered by tumour in the chamber preparation was registered on videotape using a Leitz macroscope with video camera (XC-77; Sony) to evaluate tumour growth. The tumour area (mm^2) was quantified from videotape by digital image analysis.
as §2

[5] = test system: amelanotic hamster melanoma A-Mel-3; experiment: Intravital fluorescence microscopy of tumour angiogenesis and microcirculation in the dorsal skinfold chamber; type: in vivo, Syrian Golden hamster; settings: for Appearance of tumour vasculature: 3 days after tumour cell implantation, FITC-Dextran plasma marker; for Functional vessel density (FVD): 30 mg kg^−1 b.w. i.p. every 12 h from day 1, n=6, mean±s.e.m.; for Leucocyte–endothelium interaction in tumour microvessels: rhodamine 6G-stained leucocytes
Method: as §3, §4
Analysis of microcirculatory parameters was performed off-line from video tape by an image analysis system (Cap Image; Zeintl, Heidelberg, Germany). This system described in detail by [Zeintl et al (1989)] and [Klyscz et al (1997)] allows measurement of functional vessel density (FVD) as a parameter of angiogenic activity ([Dellian et al, 1996]). FVD is defined as the total length of perfused microvessels per unit area of observation and is given in cm^−1. Red blood cell velocity (vRBC) was quantified with the line shift diagram method according to [Klyscz et al (1997)] in mm s^−1. Rolling leucocytes were defined as population of cells temporarily interacting with the vessel wall and thus having a velocity at least 50% below vRBC in the same vessel. Adherent leucocytes were given as the number of leucocytes remaining stationary for at least 30 s per square millimetre of vessel wall surface ([Atherton and Born, 1972]; [Dellian et al, 1996]).
as §1

[6] = day 13 after tumour implantation

| Compound | Side effects in treated animals [1] | Body weight ([1]; control and treated animals) | Subcutaneous tumour volume / growth pattern [2] | Effect on tumour growth of 30 mg kg^−1 every 12 h compared to 30 mg every 2 days ([2]; pilot study) | half-life ([3]; Syrian Golden, hamster, plasma, ip, after intraperitoneal injection, read-out: Plasma half-life time) | Area under the curve, intraperitoneal versus intravenous administration [3] | Tumour area ([4]; day 9) | Tumour area ([4]; day 13) | Tumour area versus controls ([4]; days 3 and 5) | Appearance of tumour vasculature [5] | Functional vessel density (FVD) ([5]; day 3 after tumour cell implantation) | Functional vessel density (FVD) [5, 6] | Red blood cell velocity (vRBC) versus control peptide ([5]; days 9 and 13, 30 mg kg^−1 i.p. every 12 h) | Vessel diameters, RGD peptide versus control peptide ([5]; intravital microscopy, 30 mg kg^−1 i.p. every 12 h) | Leucocyte–endothelium interaction in tumour microvessels ([5]; 30 mg kg^−1 i.p. every 12 h) | Day lymph node metastasis first palpable ([2]; in two animals of the group, palpation) | Palpable lymph node metastasis on day 11 ([2]; two days after day 9, palpation of axillar and inguinal lymph nodes) | Day on which FVD reached its maximum value ([5]; measurements on days 3, 5, 9 and 13, 30 mg kg^−1 i.p. every 12 h) |
| --- | --- | --- | --- | --- | --- | --- | --- | --- | --- | --- | --- | --- | --- | --- | --- | --- | --- | --- |
| CC(C)[C@H]1C(=O)N[C@@H](CCCNC(=N)N)C(=O)NCC(=O)N[C@@H](CC(=O)O)C(=O)N[C@H](Cc2ccccc2)C(=O)N1C [EMD121974, cyclic Arg-Gly-Asp-D-Phe(N-methyl)Val] | no side effects were observed | increased similar in control and treated animals | significantly smaller in comparison to controls on days 7 until 15 | slightly higher effect on tumour growth | 47 min | similar | 20.5±1.4 mm^2 | 49.1±4.8 mm^2 | slightly smaller than controls | only individual sprouts as signs of early angiogenesis were visible | 32.7 ± 12.1 cm⁻¹ | 156.9 ± 15.6 cm⁻¹ | slightly lower | no differences | almost absent |  |  |  |
| CC(C)[C@H]1C(=O)N[C@@H](CCCNC(=N)N)C(=O)NCCC(=O)N[C@@H](CC(=O)O)C(=O)N[C@H](Cc2ccccc2)C(=O)N1C [EMD135981, cyclic Arg-β-Ala-Asp-D-Phe(N-methyl)Val, reference compound] (cyclo(D[dF][NMeV]R[βAla])) |  |  | nearly exponential growth |  |  |  | 28.1±3.2 mm^2 | 80.94±6.1 mm^2 |  | dense, chaotic structured network |  | 108.2 ± 10.6 cm⁻¹ |  |  | almost absent | 9 days | palpable metastasis was found in all control animals | 5 days |

— paper PMC2375318, “Inhibition of the alpha-ν integrins with a cyclic RGD peptide impairs angiogenesis, growth and metastasis of solid tumours in vivo” (British Journal of Cancer, 2002)
